Assay results reported in article PMC10004634 (PLOS ONE, 2023).
Read-outs that look alike come from different tables or passages of the source.

How the values were obtained:
Assay in all cases: biochemical
Parameters in all cases: KINOMEscan scanMAX competition binding, DNA-tagged kinases, qPCR read-out, percent control at 300 nM
CSNK1E = CSNK1E (Homo sapiens, UniProt P49674)
FER = FER (Homo sapiens, UniProt P16591)
LTK = LTK (Homo sapiens, UniProt P29376)
LZK = molecular target: T1, LZK (Homo sapiens, UniProt O43283)
T1 construct: gene MAP3K13
T1 sequence (O43283 1-966): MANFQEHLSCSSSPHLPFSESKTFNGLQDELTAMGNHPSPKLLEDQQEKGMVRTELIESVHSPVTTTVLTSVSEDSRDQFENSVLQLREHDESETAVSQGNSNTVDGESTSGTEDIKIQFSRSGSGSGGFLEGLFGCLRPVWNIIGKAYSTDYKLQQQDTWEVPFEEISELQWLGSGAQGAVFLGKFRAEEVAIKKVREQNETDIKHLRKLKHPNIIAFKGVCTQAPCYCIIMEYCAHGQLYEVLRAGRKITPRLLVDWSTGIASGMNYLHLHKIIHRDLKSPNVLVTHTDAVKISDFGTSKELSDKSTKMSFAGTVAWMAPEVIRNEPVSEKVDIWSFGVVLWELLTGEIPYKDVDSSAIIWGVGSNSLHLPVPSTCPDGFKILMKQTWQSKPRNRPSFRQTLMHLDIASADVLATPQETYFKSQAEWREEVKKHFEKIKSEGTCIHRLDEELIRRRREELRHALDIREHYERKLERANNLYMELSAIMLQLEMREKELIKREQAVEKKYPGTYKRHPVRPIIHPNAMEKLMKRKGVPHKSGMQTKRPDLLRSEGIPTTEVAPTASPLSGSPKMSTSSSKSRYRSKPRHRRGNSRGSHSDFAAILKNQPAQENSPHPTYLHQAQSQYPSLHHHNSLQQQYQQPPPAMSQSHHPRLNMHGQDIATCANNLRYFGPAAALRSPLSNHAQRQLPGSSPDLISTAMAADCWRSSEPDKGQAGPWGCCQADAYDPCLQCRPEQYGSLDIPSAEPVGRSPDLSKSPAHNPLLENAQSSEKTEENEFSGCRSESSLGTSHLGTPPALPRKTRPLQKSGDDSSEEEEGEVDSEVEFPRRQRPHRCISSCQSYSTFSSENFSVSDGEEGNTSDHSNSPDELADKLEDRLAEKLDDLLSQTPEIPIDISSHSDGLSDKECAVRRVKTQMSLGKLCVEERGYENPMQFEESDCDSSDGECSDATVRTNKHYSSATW

PHKG1 = PHKG1 (Homo sapiens, UniProt Q16816)
PHKG2 = molecular target: T2, PHKG2 (Homo sapiens, UniProt P15735)
T2 sequence (P15735 1-406): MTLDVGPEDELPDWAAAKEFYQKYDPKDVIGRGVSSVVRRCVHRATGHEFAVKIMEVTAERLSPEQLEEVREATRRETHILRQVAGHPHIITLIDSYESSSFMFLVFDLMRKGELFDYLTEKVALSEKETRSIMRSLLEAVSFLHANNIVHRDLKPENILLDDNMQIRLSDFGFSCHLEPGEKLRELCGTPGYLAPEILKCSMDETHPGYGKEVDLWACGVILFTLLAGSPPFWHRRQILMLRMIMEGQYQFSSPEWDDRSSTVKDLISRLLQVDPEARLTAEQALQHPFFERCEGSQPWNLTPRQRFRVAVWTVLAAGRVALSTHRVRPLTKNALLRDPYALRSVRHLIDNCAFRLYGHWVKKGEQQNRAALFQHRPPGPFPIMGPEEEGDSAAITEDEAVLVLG

PRKX = molecular target: T3, PRKX (Homo sapiens, UniProt P51817)
T3 sequence (P51817 1-358): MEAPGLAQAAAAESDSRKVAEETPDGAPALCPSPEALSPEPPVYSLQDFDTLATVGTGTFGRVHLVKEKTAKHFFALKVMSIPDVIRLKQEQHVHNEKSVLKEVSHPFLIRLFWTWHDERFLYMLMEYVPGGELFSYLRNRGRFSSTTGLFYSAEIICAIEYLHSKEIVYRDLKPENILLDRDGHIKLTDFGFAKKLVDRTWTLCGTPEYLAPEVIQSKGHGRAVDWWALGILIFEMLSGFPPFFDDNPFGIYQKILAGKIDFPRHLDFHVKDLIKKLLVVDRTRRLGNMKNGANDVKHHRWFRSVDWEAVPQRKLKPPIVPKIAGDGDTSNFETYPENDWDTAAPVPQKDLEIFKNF

BRAF(V600E) = BRAF(V600E) (Homo sapiens, UniProt P15056, V600E)
FRK = FRK (Homo sapiens, UniProt P42685)
KIT(V559D) = KIT(V559D) (Homo sapiens, UniProt P10721, V559D)
[1] = read-out: Percent control / Tirabrutinib
[2] = read-out: Percent control / Zanubrutinib
[3] = read-out: Percent control / Acalabrutinib
[4] = read-out: Percent control / Ibrutinib

FRK, sequence (P42685 whole entry): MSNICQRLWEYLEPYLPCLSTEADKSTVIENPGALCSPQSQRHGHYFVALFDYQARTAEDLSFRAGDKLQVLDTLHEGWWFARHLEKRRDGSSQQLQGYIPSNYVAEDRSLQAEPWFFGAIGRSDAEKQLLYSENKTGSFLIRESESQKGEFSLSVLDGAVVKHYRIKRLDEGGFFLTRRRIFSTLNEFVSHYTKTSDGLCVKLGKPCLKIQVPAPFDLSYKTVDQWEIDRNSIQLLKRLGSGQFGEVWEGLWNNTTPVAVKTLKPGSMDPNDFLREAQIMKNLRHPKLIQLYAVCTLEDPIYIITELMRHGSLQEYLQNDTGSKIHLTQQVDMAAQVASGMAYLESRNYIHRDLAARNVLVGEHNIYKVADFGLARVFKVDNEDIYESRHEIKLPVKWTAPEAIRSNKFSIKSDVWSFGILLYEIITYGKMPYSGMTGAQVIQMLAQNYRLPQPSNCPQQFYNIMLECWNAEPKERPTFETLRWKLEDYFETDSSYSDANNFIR
KIT(V559D), sequence (P10721 whole entry V559D): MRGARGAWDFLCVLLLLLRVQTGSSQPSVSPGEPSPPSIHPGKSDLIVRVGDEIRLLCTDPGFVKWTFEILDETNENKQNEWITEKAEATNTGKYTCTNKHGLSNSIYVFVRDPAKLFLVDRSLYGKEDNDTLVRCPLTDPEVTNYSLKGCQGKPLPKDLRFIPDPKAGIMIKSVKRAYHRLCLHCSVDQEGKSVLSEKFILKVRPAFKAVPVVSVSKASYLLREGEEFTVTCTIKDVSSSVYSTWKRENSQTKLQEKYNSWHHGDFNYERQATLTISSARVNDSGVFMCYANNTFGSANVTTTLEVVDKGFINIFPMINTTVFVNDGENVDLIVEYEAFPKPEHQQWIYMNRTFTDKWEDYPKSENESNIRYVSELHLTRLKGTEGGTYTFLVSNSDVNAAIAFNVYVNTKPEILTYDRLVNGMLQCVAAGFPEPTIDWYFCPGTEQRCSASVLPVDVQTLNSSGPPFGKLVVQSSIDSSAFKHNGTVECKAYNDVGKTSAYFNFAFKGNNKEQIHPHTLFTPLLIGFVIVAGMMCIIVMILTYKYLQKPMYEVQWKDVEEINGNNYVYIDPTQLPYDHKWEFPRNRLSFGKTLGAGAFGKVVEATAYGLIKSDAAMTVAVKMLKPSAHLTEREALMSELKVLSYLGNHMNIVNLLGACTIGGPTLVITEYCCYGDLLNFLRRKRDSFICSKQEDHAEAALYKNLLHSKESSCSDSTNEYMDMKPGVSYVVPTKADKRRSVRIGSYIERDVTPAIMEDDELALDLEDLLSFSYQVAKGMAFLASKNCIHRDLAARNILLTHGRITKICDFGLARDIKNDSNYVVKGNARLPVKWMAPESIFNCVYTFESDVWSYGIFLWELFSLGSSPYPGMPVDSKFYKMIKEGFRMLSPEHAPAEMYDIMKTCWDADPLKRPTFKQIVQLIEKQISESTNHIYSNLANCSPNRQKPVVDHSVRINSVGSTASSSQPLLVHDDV
FER, sequence (P16591 whole entry): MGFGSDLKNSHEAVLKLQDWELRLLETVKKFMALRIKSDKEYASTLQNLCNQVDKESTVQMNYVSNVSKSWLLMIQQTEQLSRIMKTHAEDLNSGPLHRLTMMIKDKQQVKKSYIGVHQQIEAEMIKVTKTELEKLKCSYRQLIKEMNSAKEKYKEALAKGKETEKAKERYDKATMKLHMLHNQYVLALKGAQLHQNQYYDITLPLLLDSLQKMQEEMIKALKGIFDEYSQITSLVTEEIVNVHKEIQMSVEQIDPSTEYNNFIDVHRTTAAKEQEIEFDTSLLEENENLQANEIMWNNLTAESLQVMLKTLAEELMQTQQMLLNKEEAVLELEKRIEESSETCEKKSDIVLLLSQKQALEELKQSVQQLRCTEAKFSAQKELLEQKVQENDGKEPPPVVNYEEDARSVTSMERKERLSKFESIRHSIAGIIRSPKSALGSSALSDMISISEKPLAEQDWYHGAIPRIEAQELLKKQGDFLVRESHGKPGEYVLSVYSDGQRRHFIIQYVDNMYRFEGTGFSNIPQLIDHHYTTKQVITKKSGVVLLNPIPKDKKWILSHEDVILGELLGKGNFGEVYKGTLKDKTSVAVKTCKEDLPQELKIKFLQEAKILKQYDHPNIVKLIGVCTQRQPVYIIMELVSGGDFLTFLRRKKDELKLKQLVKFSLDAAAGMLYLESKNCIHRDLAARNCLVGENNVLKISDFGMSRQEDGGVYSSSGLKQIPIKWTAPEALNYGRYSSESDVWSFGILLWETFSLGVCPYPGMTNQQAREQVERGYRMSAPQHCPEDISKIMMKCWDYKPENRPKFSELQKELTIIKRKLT
PHKG1, sequence (Q16816 whole entry): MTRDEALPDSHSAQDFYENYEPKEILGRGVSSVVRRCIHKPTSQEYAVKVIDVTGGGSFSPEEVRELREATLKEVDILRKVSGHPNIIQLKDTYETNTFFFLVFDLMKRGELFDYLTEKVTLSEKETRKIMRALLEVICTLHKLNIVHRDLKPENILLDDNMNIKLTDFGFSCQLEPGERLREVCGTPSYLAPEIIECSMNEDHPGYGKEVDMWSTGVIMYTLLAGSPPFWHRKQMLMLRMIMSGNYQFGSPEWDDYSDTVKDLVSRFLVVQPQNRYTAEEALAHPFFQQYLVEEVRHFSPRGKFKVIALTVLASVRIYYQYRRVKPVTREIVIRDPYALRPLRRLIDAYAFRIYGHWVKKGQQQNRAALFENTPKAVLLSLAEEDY
BRAF(V600E), sequence (P15056 whole entry V600E): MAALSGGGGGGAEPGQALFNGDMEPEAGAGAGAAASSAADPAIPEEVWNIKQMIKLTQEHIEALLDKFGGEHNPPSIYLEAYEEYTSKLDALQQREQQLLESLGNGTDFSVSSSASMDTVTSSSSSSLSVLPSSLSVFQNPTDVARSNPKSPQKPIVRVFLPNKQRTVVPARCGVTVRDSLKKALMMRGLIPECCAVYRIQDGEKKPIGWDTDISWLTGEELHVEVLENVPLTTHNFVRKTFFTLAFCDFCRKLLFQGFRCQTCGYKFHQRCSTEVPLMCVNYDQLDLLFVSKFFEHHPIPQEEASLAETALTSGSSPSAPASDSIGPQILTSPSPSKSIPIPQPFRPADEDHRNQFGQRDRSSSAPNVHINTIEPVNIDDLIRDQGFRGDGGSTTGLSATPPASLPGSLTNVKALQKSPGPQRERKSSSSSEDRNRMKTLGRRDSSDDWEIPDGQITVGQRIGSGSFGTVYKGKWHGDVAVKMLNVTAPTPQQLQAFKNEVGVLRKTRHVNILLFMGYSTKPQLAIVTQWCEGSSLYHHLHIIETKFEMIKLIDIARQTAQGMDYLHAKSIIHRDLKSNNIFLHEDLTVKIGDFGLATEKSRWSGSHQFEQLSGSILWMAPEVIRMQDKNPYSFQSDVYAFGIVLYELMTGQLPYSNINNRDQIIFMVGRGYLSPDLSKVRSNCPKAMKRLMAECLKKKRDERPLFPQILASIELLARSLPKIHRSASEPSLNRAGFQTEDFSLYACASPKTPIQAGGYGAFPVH
LTK, sequence (P29376 whole entry): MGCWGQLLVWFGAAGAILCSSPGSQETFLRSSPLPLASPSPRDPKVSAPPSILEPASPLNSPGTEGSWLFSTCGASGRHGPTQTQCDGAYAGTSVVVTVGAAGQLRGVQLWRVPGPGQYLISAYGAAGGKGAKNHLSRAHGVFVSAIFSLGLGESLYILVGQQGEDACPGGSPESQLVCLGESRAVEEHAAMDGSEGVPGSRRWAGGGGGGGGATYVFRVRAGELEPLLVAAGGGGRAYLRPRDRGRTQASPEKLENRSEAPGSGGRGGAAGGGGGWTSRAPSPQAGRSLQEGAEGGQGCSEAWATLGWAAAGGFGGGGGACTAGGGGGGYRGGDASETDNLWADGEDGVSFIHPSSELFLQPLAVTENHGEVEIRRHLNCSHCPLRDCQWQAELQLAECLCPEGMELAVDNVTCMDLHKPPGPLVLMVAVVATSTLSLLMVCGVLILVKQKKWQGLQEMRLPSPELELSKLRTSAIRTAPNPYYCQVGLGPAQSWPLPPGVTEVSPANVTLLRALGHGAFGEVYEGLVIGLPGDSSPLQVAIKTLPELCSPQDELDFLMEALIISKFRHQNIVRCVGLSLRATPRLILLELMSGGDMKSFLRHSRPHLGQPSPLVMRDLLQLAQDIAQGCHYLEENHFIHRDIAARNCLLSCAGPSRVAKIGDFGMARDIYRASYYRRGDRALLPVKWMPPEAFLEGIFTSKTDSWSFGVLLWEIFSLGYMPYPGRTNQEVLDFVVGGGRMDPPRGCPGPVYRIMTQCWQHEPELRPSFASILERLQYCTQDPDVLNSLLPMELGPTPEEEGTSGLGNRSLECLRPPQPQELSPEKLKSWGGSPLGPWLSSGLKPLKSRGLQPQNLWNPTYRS
CSNK1E, sequence (P49674 whole entry): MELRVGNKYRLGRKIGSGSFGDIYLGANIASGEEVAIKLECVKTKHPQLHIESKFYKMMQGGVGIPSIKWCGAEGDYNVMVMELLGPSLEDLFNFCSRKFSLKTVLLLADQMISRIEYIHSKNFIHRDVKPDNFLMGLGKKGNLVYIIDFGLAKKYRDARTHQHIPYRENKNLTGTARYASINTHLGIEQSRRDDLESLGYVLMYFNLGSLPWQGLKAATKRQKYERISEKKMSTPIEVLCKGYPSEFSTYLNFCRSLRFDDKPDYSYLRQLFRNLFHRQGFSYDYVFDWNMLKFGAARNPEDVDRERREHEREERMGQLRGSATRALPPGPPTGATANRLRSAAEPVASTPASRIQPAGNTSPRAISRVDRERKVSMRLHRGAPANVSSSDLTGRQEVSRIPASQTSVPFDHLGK

Q: How did the remaining binding at 0.3 µM (CSNK1E; [1]) turn out when CC#CC(=O)N1CC[C@@H](n2c(=O)n(-c3ccc(Oc4ccccc4)cc3)c3c(N)ncnc32)C1 [Tirabrutinib] was run?
A: Its remaining binding at 0.3 µM is 95%.

Q: And the remaining binding at 0.3 µM (FER; [1])?
A: The remaining binding at 0.3 µM was 93%.

Q: And the remaining binding at 0.3 µM (LTK; [1])?
A: Its remaining binding at 0.3 µM is 100%.

Q: What about the remaining binding at 0.3 µM (LZK; [1]) of the same compound?
A: Its remaining binding at 0.3 µM is 63%.

Q: And the remaining binding at 0.3 µM (PHKG1; [1])?
A: Its remaining binding at 0.3 µM is 83%.

Q: What about the remaining binding at 0.3 µM (PHKG2; [1]) of the same compound?
A: Its remaining binding at 0.3 µM is 93%.

Q: What about the remaining binding at 0.3 µM (PRKX; [1]) of the same compound?
A: Its remaining binding at 0.3 µM is 87%.

Q: Which results are given for C=CC(=O)N1CCC([C@@H]2CCNc3c(C(N)=O)c(-c4ccc(Oc5ccccc5)cc4)nn32)CC1 [Zanubrutinib]?
A: remaining binding at 0.3 µM (BRAF(V600E); [2]): 88%; remaining binding at 0.3 µM (FER; [2]): 100%; remaining binding at 0.3 µM (FRK; [2]): 42%; remaining binding at 0.3 µM (KIT(V559D); [2]): 87%; remaining binding at 0.3 µM (LTK; [2]): 92%; remaining binding at 0.3 µM (LZK; [2]): 93%; remaining binding at 0.3 µM (PHKG1; [2]): 67%; remaining binding at 0.3 µM (PHKG2; [2]): 92%; remaining binding at 0.3 µM (PRKX; [2]): 96%

Q: With CC#CC(=O)N1CCC[C@H]1c1nc(-c2ccc(C(=O)Nc3ccccn3)cc2)c2c(N)nccn12 [Acalabrutinib] as the compound, how does the remaining binding at 0.3 µM (BRAF(V600E); [3]) read?
A: Its remaining binding at 0.3 µM is 70%.

Q: And the remaining binding at 0.3 µM (CSNK1E; [3])?
A: The remaining binding at 0.3 µM was 89%.

Q: What about the remaining binding at 0.3 µM (FER; [3]) of the same compound?
A: The remaining binding at 0.3 µM was 84%.

Q: And the remaining binding at 0.3 µM (FRK; [3])?
A: The remaining binding at 0.3 µM was 79%.

Q: And the remaining binding at 0.3 µM (KIT(V559D); [3])?
A: The remaining binding at 0.3 µM was 84%.

Q: What about the remaining binding at 0.3 µM (LTK; [3]) of the same compound?
A: Its remaining binding at 0.3 µM is 100%.

Q: What about the remaining binding at 0.3 µM (LZK; [3]) of the same compound?
A: Its remaining binding at 0.3 µM is 85%.

Q: What about the remaining binding at 0.3 µM (PHKG1; [3]) of the same compound?
A: The remaining binding at 0.3 µM was 92%.

Q: And the remaining binding at 0.3 µM (PRKX; [3])?
A: The remaining binding at 0.3 µM was 81%.

Q: With C=CC(=O)N1CCC[C@@H](n2nc(-c3ccc(Oc4ccccc4)cc3)c3c(N)ncnc32)C1 [Ibrutinib] as the compound, how does the remaining binding at 0.3 µM (BRAF(V600E); [4]) read?
A: The remaining binding at 0.3 µM was 98%.

Q: What about the remaining binding at 0.3 µM (CSNK1E; [4]) of the same compound?
A: The remaining binding at 0.3 µM was 79%.

Q: What about the remaining binding at 0.3 µM (FER; [4]) of the same compound?
A: Its remaining binding at 0.3 µM is 94%.

Q: And the remaining binding at 0.3 µM (FRK; [4])?
A: Its remaining binding at 0.3 µM is 32%.

Q: And the remaining binding at 0.3 µM (KIT(V559D); [4])?
A: Its remaining binding at 0.3 µM is 55%.

Q: And the remaining binding at 0.3 µM (LTK; [4])?
A: Its remaining binding at 0.3 µM is 78%.

Q: And the remaining binding at 0.3 µM (LZK; [4])?
A: The remaining binding at 0.3 µM was 79%.

Q: And the remaining binding at 0.3 µM (PHKG2; [4])?
A: Its remaining binding at 0.3 µM is 81%.

Q: What about the remaining binding at 0.3 µM (PRKX; [4]) of the same compound?
A: Its remaining binding at 0.3 µM is 75%.
